Source: ChEMBL document CHEMBL3585305, “Structure-Based Design and Optimization of Multitarget-Directed 2H-Chromen-2-one Derivatives as Potent Inhibitors of Monoamine Oxidase B and Cholinesterases” (J Med Chem, 2015)
pIC50: −log10 of the molar value.

Tests used:
[1] = molecular target: T1, Amine oxidase [flavin-containing] A (Rattus norvegicus, UniProt P21396); experiment: Inhibition of rat brain MAO-A using kynuramine substrate […] at 10 uM by spectrophotometric assay
T1 sequence (P21396 whole entry): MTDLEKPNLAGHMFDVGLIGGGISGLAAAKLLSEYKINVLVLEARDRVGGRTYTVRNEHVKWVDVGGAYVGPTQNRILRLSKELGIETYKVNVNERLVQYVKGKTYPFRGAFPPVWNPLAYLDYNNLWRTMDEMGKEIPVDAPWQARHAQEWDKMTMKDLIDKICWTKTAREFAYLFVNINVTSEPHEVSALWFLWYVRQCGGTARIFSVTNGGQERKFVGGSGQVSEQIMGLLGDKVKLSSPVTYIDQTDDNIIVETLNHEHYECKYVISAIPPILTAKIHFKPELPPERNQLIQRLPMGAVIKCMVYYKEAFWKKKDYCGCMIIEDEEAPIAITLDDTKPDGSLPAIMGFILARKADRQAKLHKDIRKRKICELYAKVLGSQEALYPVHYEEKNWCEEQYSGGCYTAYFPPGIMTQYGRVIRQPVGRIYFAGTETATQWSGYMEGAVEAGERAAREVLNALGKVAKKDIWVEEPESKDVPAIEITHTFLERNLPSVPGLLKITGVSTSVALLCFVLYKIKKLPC

[2] = molecular target: T2, Amine oxidase [flavin-containing] B (Rattus norvegicus, UniProt P19643); experiment: Inhibition of rat brain MAO-B using kynuramine substrate […] by spectrophotometric assay
T2 sequence (P19643 whole entry): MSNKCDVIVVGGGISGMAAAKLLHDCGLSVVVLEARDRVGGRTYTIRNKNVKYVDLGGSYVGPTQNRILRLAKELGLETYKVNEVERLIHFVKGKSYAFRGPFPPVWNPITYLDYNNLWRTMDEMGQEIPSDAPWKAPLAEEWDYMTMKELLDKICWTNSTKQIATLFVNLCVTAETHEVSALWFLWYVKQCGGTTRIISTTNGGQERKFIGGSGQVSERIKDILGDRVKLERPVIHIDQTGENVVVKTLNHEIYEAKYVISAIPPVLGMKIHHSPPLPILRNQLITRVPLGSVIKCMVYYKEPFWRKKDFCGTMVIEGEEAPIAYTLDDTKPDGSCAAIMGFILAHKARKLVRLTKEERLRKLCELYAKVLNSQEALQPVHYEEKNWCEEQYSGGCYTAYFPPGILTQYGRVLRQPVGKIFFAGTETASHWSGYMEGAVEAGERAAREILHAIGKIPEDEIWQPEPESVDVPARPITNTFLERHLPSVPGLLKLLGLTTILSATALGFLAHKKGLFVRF

[3] = molecular target: Acetylcholinesterase (Electrophorus electricus, UniProt O42275); experiment: Inhibition of electric eel AChE by spectrophotometric Ellman's method
[4] = molecular target: Cholinesterase (Equus caballus) (UniProt P81908); experiment: Inhibition of equine serum BuChE at 10 uM by spectrophotometric Ellman's method
[5] = molecular target: T2, Amine oxidase [flavin-containing] B; experiment: Inhibition of rat brain MAO-B using kynuramine substrate […] at 10 uM by spectrophotometric assay
[6] = molecular target: Cholinesterase (Equus caballus, UniProt P81908); experiment: Inhibition of equine serum BuChE by spectrophotometric Ellman's method
[7] = molecular target: Acetylcholinesterase (Homo sapiens, UniProt P22303); experiment: Inhibition of human recombinant AChE by spectrophotometric Ellman's method
[8] = molecular target: T1, Amine oxidase [flavin-containing] A; experiment: Inhibition of rat brain MAO-A using kynuramine substrate […] by spectrophotometric assay
[9] = molecular target: T3, Amine oxidase [flavin-containing] A (Homo sapiens, UniProt P21397); experiment: Inhibition of human recombinant MAO-A using kynuramine substrate at 10 uM by spectrophotometric assay
T3 sequence (P21397 whole entry): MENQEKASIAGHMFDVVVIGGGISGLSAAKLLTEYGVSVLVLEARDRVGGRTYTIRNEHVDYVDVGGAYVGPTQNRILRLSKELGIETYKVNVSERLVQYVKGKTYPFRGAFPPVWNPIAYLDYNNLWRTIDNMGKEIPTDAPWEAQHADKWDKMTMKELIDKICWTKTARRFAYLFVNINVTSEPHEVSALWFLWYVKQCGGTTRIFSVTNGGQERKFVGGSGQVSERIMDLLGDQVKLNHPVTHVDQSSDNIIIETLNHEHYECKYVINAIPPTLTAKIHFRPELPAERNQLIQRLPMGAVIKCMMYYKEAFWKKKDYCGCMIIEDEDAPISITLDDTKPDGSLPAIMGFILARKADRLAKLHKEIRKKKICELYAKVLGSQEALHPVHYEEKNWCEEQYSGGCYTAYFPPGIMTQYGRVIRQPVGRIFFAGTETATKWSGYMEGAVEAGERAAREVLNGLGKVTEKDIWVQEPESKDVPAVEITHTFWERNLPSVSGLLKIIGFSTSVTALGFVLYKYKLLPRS

[10] = molecular target: T4, Amine oxidase [flavin-containing] B (Homo sapiens, UniProt P27338)
T4 sequence (P27338 whole entry): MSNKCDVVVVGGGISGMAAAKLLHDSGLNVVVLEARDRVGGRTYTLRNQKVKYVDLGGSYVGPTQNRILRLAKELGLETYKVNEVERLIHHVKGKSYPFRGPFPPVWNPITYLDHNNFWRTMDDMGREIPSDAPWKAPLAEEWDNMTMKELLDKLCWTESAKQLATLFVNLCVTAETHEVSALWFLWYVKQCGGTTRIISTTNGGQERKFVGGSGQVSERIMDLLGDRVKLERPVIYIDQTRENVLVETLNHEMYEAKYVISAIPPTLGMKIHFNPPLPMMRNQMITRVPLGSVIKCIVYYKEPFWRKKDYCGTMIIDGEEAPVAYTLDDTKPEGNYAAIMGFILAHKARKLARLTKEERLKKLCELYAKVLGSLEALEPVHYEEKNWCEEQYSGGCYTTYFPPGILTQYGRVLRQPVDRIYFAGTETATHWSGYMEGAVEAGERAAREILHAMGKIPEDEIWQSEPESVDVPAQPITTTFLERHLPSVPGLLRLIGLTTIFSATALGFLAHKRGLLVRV
Description: Inhibition of human recombinant MAO-B using kynuramine substrate by spectrophotometric assay

[11] = molecular target: T3, Amine oxidase [flavin-containing] A; experiment: Inhibition of human recombinant MAO-A using kynuramine substrate by spectrophotometric assay

Sequence of Acetylcholinesterase (Homo sapiens, UniProt P22303) (P22303 whole entry): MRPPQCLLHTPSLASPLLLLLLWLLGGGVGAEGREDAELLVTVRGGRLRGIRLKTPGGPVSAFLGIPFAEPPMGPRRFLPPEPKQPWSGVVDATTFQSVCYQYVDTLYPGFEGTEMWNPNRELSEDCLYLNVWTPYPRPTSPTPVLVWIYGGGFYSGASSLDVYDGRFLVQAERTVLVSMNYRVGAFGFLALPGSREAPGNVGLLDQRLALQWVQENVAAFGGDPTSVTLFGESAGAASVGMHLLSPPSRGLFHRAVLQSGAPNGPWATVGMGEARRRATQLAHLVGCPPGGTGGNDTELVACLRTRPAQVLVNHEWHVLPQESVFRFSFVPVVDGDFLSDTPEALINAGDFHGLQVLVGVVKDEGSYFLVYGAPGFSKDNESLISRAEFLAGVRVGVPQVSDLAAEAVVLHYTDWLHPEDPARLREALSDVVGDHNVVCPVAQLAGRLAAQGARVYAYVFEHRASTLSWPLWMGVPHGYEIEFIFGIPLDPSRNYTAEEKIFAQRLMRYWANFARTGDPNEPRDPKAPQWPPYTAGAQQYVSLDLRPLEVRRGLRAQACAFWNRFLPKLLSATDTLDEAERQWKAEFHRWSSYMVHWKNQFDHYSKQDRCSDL
Sequence of Acetylcholinesterase (Electrophorus electricus, UniProt O42275) (O42275 whole entry): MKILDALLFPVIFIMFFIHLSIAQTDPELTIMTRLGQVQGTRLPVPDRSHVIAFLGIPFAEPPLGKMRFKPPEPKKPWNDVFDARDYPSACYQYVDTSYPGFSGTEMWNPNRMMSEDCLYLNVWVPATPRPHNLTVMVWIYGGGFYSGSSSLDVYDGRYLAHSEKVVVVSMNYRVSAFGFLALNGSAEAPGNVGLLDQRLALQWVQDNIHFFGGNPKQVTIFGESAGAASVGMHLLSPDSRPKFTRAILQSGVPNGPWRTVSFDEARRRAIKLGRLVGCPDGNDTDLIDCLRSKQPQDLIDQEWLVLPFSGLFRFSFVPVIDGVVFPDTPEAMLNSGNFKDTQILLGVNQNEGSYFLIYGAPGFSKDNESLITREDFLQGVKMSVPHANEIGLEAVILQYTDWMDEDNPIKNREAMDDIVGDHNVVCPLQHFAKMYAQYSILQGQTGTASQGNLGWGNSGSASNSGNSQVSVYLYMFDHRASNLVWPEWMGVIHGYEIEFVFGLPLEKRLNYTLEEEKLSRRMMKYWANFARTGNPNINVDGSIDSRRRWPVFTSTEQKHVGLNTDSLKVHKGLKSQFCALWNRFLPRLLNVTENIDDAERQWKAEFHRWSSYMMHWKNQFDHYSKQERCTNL
Sequence of Cholinesterase (Equus caballus) (P81908 whole entry): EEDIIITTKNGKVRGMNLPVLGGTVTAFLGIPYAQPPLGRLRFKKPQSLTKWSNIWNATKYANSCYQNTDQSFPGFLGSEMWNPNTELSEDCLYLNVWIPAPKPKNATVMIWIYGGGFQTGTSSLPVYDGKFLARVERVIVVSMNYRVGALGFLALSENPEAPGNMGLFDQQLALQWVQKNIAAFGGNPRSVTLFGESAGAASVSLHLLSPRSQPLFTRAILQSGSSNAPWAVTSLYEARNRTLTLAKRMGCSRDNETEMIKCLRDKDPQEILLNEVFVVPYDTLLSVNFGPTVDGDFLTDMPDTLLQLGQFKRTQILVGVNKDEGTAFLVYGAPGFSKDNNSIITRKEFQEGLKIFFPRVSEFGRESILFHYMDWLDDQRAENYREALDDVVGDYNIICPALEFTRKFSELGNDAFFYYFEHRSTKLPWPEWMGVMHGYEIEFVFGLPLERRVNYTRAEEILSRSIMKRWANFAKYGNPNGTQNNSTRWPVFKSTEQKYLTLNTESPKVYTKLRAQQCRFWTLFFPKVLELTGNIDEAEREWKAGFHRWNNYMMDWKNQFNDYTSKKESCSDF
Sequence of Cholinesterase (P81908 whole entry): as above

SMILES | inhibition at 10 µM [1] | pIC50 [2] | pIC50 [3] | inhibition [4] | inhibition at 10 µM [5] | pIC50 [6] | pIC50 [7] | pIC50 [8] | inhibition at 10 µM [9] | pIC50 [10] | pIC50 [11]
Cc1c(C)c2ccc(OCc3ccc(CN(C)Cc4cccc(Cl)c4)cc3)cc2oc1=O | 7% | 5.47 | 6.18 | 48% |  |  |  |  |  |  | 
CCN(CC)Cc1cccc(COc2ccc3ccc(=O)oc3c2)c1 | 43% |  | 5.77 |  | 35% | 5.17 |  |  |  |  | 
Cc1cc(=O)oc2cc(OCc3ccc(CN(C)Cc4ccccc4)cc3)ccc12 | 10% | 5.39 | 6.74 |  |  | 6.00 | 6.04 |  |  |  | 
Cc1cc2ccc(OCc3ccc(CN(C)Cc4ccccc4)cc3)cc2oc1=O | 0% | 5.62 | 6.59 |  |  | 5.96 | 6.30 |  |  |  | 
Cc1c(C)c2ccc(OCCCCCN(C)Cc3cccc(C#N)c3)cc2oc1=O |  | 5.60 | 5.64 |  |  | 5.39 |  | 5.28 |  |  | 
COc1cccc(CN(C)Cc2ccc(COc3ccc4ccc(=O)oc4c3)cc2)c1 | 20% | 5.54 | 5.34 |  |  | 5.85 |  |  |  |  | 
Cc1cc(=O)oc2cc(OCc3ccc(CN(C)Cc4cccc(Cl)c4)cc3)ccc12 | 0% | 5.30 | 6.92 | 47% |  |  | 6.00 |  |  |  | 
CN(Cc1cccc(C#N)c1)Cc1cccc(COc2ccc3ccc(=O)oc3c2)c1 | 2% | 5.43 | 5.38 |  |  | 5.55 |  |  |  |  | 
CN(Cc1ccc(C#N)cc1)Cc1ccc(COc2ccc3ccc(=O)oc3c2)cc1 | 6% | 6.57 | 5.25 |  |  | 5.36 | 5.22 |  | 0% | 7.35 | 
CN(Cc1ccc(C#N)cc1)Cc1ccc(COc2ccc3c(CO)cc(=O)oc3c2)cc1 | 0% | 7.46 | 5.20 | 23% |  |  |  |  |  | 8.24 | 5.35
CN(Cc1ccc(COc2ccc3ccc(=O)oc3c2)cc1)Cc1cccc(Cl)c1 | 12% | 5.57 | 6.23 |  |  | 5.92 |  |  |  |  | 
Cc1c(C)c2ccc(OCc3ccc(CN(C)Cc4ccc(C#N)cc4)cc3)cc2oc1=O |  |  | 5.38 | 18% |  |  | 5.41 |  |  |  | 
Cc1c(C)c2ccc(OCCCCCN(C)Cc3ccc(C#N)cc3)cc2oc1=O | 48% | 5.48 | 5.55 |  |  | 5.37 |  |  |  |  | 
O=c1ccc2ccc(OCc3ccc(CCNCc4ccccc4)cc3)cc2o1 |  |  | 5.33 |  |  | 6.19 |  |  |  |  | 
CCN(CCCCCOc1ccc2c(C)c(C)c(=O)oc2c1)Cc1ccccc1 |  | 5.11 | 6.12 |  |  | 6.03 |  | 5.02 |  |  | 
CN(Cc1ccc(COc2ccc3ccc(=O)oc3c2)cc1)Cc1cccc(C#N)c1 | 5% | 5.55 | 5.13 |  |  | 5.39 |  |  |  |  | 
Cc1c(C)c2ccc(OCCCCCN(C)Cc3cccc(Cl)c3)cc2oc1=O | 42% | 5.05 | 6.54 |  |  | 5.59 |  |  |  |  | 
Cc1c(C)c2ccc(OCCCCN(C)Cc3ccccc3)cc2oc1=O |  | 5.96 | 6.31 |  |  | 5.43 | 6.10 | 5.18 |  | 7.02 | 6.32

SMILES | inhibition at 10 µM [1] | pIC50 [2] | pIC50 [3] | inhibition [4] | inhibition at 10 µM [5] | pIC50 [6] | pIC50 [7] | pIC50 [8] | inhibition at 10 µM [9] | pIC50 [10] | pIC50 [11]
CN(Cc1cccc(Cl)c1)Cc1cccc(COc2ccc3ccc(=O)oc3c2)c1 | 17% | 5.47 | 5.24 |  |  | 6.51 |  |  |  |  | 
CN(Cc1ccccc1)Cc1ccc(COc2ccc3ccc(=O)oc3c2)cc1 |  |  | 6.12 |  |  | 4.96 | 6.02 |  |  |  | 
Cc1cc2ccc(OCc3ccc(CN(C)Cc4ccc(C#N)cc4)cc3)cc2oc1=O | 15% | 5.77 | 5.15 | 16% |  |  |  |  | 11% | 7.77 | 
CN(C)Cc1ccc(COc2ccc3ccc(=O)oc3c2)cc1 | 17% | 5.43 | 5.15 |  |  | 6.62 |  |  |  |  | 
CCN(CC)Cc1ccc(COc2ccc3ccc(=O)oc3c2)cc1 | 9% |  | 5.54 |  | 44% | 5.47 |  |  |  |  | 
CN(C)Cc1cccc(COc2ccc3ccc(=O)oc3c2)c1 |  | 5.49 |  |  |  | 5.28 |  | 5.00 |  |  | 
COc1cccc(CN(C)Cc2cccc(COc3ccc4ccc(=O)oc4c3)c2)c1 | 14% | 5.60 | 5.18 |  |  | 6.06 |  |  |  |  | 
Cc1c(C)c2ccc(OCCCN(C)Cc3ccccc3)cc2oc1=O | 35% | 6.48 | 5.89 |  |  | 5.11 | 6.00 |  | 17% | 6.87 | 
Cc1cc2ccc(OCc3ccc(CN(C)Cc4cccc(Cl)c4)cc3)cc2oc1=O | 0% | 5.35 | 5.89 | 29% |  |  |  |  |  |  | 
O=c1cc(CO)c2ccc(OCc3ccc(CNCc4ccccc4)cc3)cc2o1 | 19% | 6.28 | 6.36 |  |  | 6.24 |  |  |  |  | 
CN(Cc1ccc(C#N)cc1)Cc1ccc(COc2ccc3cc(C#N)c(=O)oc3c2)cc1 | 0% | 6.00 |  | 14% |  |  |  |  |  |  | 
Cc1c(C)c2ccc(OCCCCCN(C)Cc3ccccc3)cc2oc1=O |  | 6.01 | 6.26 |  |  | 5.55 |  | 5.38 |  |  | 
CN(Cc1ccccc1)Cc1cccc(COc2ccc3ccc(=O)oc3c2)c1 |  |  | 5.64 |  |  | 6.00 |  |  |  |  | 
Cc1cc(=O)oc2cc(OCc3ccc(CN(C)Cc4ccc(C#N)cc4)cc3)ccc12 | 10% | 6.39 | 5.48 | 29% |  |  | 5.07 |  | 39% | 7.41 | 
CN(Cc1ccccc1)Cc1ccc(COc2ccc3cc(C#N)c(=O)oc3c2)cc1 | 0% |  | 6.70 |  | 41% | 5.26 |  |  |  |  | 
CN(CCc1ccc(COc2ccc3ccc(=O)oc3c2)cc1)Cc1ccccc1 |  |  | 6.07 |  |  | 6.28 |  |  |  |  | 
CCN(CCCOc1ccc2c(C)c(C)c(=O)oc2c1)Cc1ccccc1 |  | 6.01 | 6.44 |  |  | 5.40 |  | 5.13 |  |  | 
